Data on 17 molecules can be found in US10508109B2 (priority 2015, dated 2019).

In one test the test system is A549. The experiment in a line: Cell-based assay, anti-proliferative activity (Cell Counting Kit-8, 72 hours). Conditions: Homo sapiens, read-out: IC50 (μM) A549. The essentials:
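Growth read-out after inhibitor treatment of plated cells; potency expressed as IC50.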
In general terms: Formazan colour is commonly taken as a measure of viable cells.

Another test concerns the target SUV39H2 (Homo sapiens (Human), UniProt Q9H5I1). Conditions: read-out: IC50 (μM) Suv 39H2 assay.
For another test, the system named is HFL1. The experiment in a line: Cell-based assay, anti-proliferative activity (Cell Counting Kit-8, 72 hours). Conditions: Homo sapiens, read-out: IC50 (μM) HFL1. The method in brief:
(§1)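 Seed cells in 96-well plates; add serially diluted inhibitor (1.5625 to 100 micro-M plus vehicle); incubate 72 hours; quantify viable growth by CCK-8 and calculate IC50.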

For another test, the system named is HCT-116. Described as above. Conditions: Homo sapiens, read-out: IC50 (μM) HCT-116. The essentials:
as §1

The subject of the next test is CCD-18Co. Described as above. Conditions: Homo sapiens, read-out: IC50 (μM) CCD-18Co. The method in brief:
as §1

The subject of another test is PC14. The test is described as above. Conditions: Homo sapiens, read-out: IC50 (μM) PC14. The method in brief:
as §1

[1] abbreviates: A549 cells, 72 hours, Cell Counting Kit-8.
Where [2] appears, read: HFL1 cells, 72 hours, Cell Counting Kit-8.
[3] abbreviates: HCT-116 cells, 72 hours, Cell Counting Kit-8.
[4] abbreviates: CCD-18Co cells, 72 hours, Cell Counting Kit-8.
[5] abbreviates: PC-14, PC14 cells, 72 hours, Cell Counting Kit-8.
The mark [6] stands for this setting: A549 cells, Cell Counting Kit-8, 72 hours.
[7] abbreviates: HFL1 cells, Cell Counting Kit-8, 72 hours.
Setting [8] is: HCT-116 cells, Cell Counting Kit-8, 72 hours.
[9] abbreviates: CCD-18Co cells, Cell Counting Kit-8, 72 hours.
Where [10] appears, read: PC-14, PC14 cells, Cell Counting Kit-8, 72 hours.

Where a name gives a salt, the structure may show the parent alone. Read-outs that look alike come from different tables or passages of the source.

A word on the IC50: it is the midpoint of a concentration-inhibition curve.

Sequence of SUV39H2 (Q9H5I1 whole entry): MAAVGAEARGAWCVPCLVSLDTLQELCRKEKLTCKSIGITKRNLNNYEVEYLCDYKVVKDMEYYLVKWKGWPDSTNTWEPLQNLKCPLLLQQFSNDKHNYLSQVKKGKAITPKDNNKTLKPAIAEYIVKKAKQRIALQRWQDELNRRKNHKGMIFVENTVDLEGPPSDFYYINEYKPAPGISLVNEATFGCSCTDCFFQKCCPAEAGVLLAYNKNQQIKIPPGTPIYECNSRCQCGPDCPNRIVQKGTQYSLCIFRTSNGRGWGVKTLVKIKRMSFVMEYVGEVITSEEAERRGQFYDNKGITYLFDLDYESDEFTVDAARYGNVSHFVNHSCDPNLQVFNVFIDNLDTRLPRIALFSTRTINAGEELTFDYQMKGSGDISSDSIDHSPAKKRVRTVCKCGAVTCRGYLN

As for `COc1cc(OC)c(-c2cn3ccc(N4CC[C@H](NCc5ccccc5)C4)cc3n2)cc1Cl` [Example 301, (S)—N-benzyl-1-(2-(5-chloro-2,4-dimethoxyphenyl)imidazo[1,2-a]pyridin-7-yl)pyrrolidin-3-amine], the half-inhibitory concentration (IC50) turned out to be 1.4 µM in the test on A549 (setting [1]); 0.0107 µM on SUV39H2 (enzyme assay); 0.69 µM with HFL1 (setting [2]); 0.79 µM in the test on HCT-116 (setting [3]); 1.1 µM with CCD-18Co (setting [4]); 1.5 µM with PC14 (setting [5]).
For `COc1cc(OC)c(-c2cn3ccc(N4CCN(C(=O)C5CCCC5)CC4)nc3n2)cc1Cl` [Example 243, (4-(2-(5-chloro-2,4-dimethoxyphenyl)imidazo[1,2-a]pyrimidin-7-yl)-piperazin-1-yl)(cyclopentyl)methanone], the IC50 in the test on A549 (setting [1]) is 4.7 µM; on SUV39H2 (enzyme assay), 0.0183 µM; in the test on HFL1 (setting [2]), 4.8 µM; in the test with HCT-116 (setting [3]), 5.8 µM; in the test on CCD-18Co (setting [4]), 6.1 µM; in the test with PC14 (setting [5]) it was 3.3 µM.
For `COc1cc(OC)c(-c2cn3ccc(N4CC[C@H](NCc5ccc(F)cc5)C4)cc3n2)cc1Cl` [Example 302, (S)-1-(2-(5-chloro-2,4-dimethoxyphenyl)imidazo[1,2-a]pyridin-7-yl)-N-(4-fluorobenzyl)pyrrolidin-3-amine], the IC50 in the test with A549 (setting [1]) is 1.5 µM; on SUV39H2 (enzyme assay), 0.0153 µM; with HFL1 (setting [2]) it was 0.72 µM; with HCT-116 (setting [3]), 0.92 µM; in the test with CCD-18Co (setting [4]), 1.1 µM; in the test on PC14 (setting [5]) it was 1.4 µM.
In the case of `COc1cc(OC)c(-c2cn3ccc(N4CCCN(S(=O)(=O)N(C)C)CC4)cc3n2)cc1Cl` [Example 200, 4-[2-(5-chloro-2,4-dimethoxyphenyl)imidazo[1,2-a]pyridin-7-yl]-N,N-dimethyl-1,4-diazepane-1-sulfonamide], the IC50 in the test on A549 (setting [6]) worked out at 1.6 µM; at SUV39H2 (enzyme assay), 0.00674 µM; in the test on HFL1 (setting [7]), 1.7 µM; in the test with HCT-116 (setting [8]), 2 µM; with CCD-18Co (setting [9]), 3 µM; with PC14 (setting [10]) it was 1.3 µM.
Consider `COc1cc(OC)c(-c2cn3ccc(N4CCN(CCC(=O)NCCN(C)C)CC4)cc3n2)cc1Cl` [Example 158, 3-(4-(2-(5-chloro-2,4-dimethoxyphenyl)imidazo[1,2-a]pyridin-7-yl)piperazin-1-yl)-N-(2-(dimethylamino)ethyl)propanamide], for which the IC50 in the test on A549 (setting [6]) stood at 9.3 µM; on SUV39H2 (enzyme assay) it was 0.00353 µM; in the test on HFL1 (setting [7]), 7.7 µM; with HCT-116 (setting [8]) it was 9.4 µM; in the test with CCD-18Co (setting [9]) it was 14 µM; in the test on PC14 (setting [10]), 9.8 µM.
On to `COc1cc(OC)c(-c2cn3ccc(N4CC[C@H](NC(=O)OC(C)(C)C)C4)cc3n2)cc1Cl` [Example 44, (S)-tert-butyl (1-(2-(5-chloro-2,4-dimethoxyphenyl)imidazo[1,2-a]pyridin-7-yl)-pyrrolidin-3-yl)carbamate], for which the IC50 was 3 µM in the test with A549 (setting [6]); 0.00982 µM at SUV39H2 (enzyme assay); 1.1 µM with HFL1 (setting [7]); 3.4 µM in the test with HCT-116 (setting [8]); 2.2 µM with CCD-18Co (setting [9]); 1.6 µM in the test on PC14 (setting [10]).
Consider `COc1cc(OC)c(-c2cn3cc(NCCN)c(C)cc3n2)cc1Cl` [Example 78, N^1-(2-(5-chloro-2,4-dimethoxyphenyl)-7-methylimidazo[1,2-a]pyridin-6-yl)ethane-1,2-diamine], for which the IC50 in the test on A549 (A549, 72 h) was found to be 6.3 µM; on SUV39H2 (enzyme assay) it was 0.00431 µM; in the test on HFL1 (HFL1, 72 h), 2.7 µM; with HCT-116 (HCT-116, 72 h), 5.6 µM; in the test with CCD-18Co (CCD-18Co, 72 h), 5.7 µM; in the test on PC14 (PC-14, 72 h), 6.1 µM.
As for `COc1cc(OC)c(-c2cn3ccc(N4CC[C@H](NCc5ccc(C(F)(F)F)cc5)C4)cc3n2)cc1Cl` [Example 303, (S)-1-(2-(5-chloro-2,4-dimethoxyphenyl)imidazo[1,2-a]pyridin-7-yl)-N-(4-(trifluoromethyl)benzyl)pyrrolidin-3-amine], the IC50 was found to be 1 µM in the test with A549 (setting [1]); 0.0278 µM on SUV39H2 (enzyme assay); 0.68 µM in the test with HFL1 (setting [2]); 0.7 µM with HCT-116 (setting [3]); 0.86 µM with CCD-18Co (setting [4]); 0.95 µM in the test with PC14 (setting [5]).
In the case of `COc1cc(OC)c(-c2cn3ccc(N4CCCC4)cc3n2)cc1Cl` [Example 4, 2-(5-chloro-2,4-dimethoxyphenyl)-7-(pyrrolidin-1-yl)imidazo[1,2-a]pyridine hydrobromide], the IC50 worked out at 2 µM in the test with A549 (setting [6]); 0.0031 µM on SUV39H2 (enzyme assay); 1.4 µM with HFL1 (setting [7]); 1.5 µM in the test on HCT-116 (setting [8]); 1.1 µM in the test on CCD-18Co (setting [9]); 1.4 µM in the test with PC14 (setting [10]).
For the molecule `CNC1CCN(c2ccn3cc(-c4cc(Cl)c(OC)cc4OC)nc3c2)CC1` [Example 24, 1-(2-(5-chloro-2,4-dimethoxyphenyl)imidazo[1,2-a]pyridin-7-yl)-N-methylpiperidin-4-amine hydrochloride], the IC50 with A549 (A549, 72 h) came out at 5.5 µM; at SUV39H2, 0.00939 µM; with HFL1 (HFL1, 72 h), 2.7 µM; in the test on HCT-116 (HCT-116, 72 h), 4.4 µM; with CCD-18Co (CCD-18Co, 72 h) it was 11 µM; in the test on PC14 (PC-14, 72 h), 5.7 µM.
As for `COc1cc(OC)c(-c2cn3ccc(NC(=O)CNC(=O)OC(C)(C)C)cc3n2)cc1Cl` [Example 161, tert-butyl (2-((2-(5-chloro-2,4-dimethoxyphenyl)imidazo[1,2-a]pyridin-7-yl)-amino)-2-oxoethyl)carbamate], the IC50 with A549 (setting [6]) stood at 8.8 µM; at SUV39H2 (enzyme assay), 0.0379 µM; in the test with HFL1 (setting [7]), 8.4 µM; with HCT-116 (setting [8]), 7 µM; with CCD-18Co (setting [9]), 7.8 µM; with PC14 (setting [10]) it was 8.7 µM.
For `COc1cc(OC)c(-c2cn3ccc(NC(=O)[C@@H](N)C(C)C)cc3n2)cc1Cl` [Example 252, (S)-2-amino-N-(2-(5-chloro-2,4-dimethoxyphenyl)imidazo[1,2-a]pyridin-7-yl)-3-methylbutanamide], the IC50 was 7.8 µM in the test on A549 (A549, 72 h); 0.0423 µM at SUV39H2 (enzyme assay); 5.9 µM with HFL1 (HFL1, 72 h); 5.4 µM in the test on HCT-116 (HCT-116, 72 h); 4.7 µM with CCD-18Co (CCD-18Co, 72 h); 6.3 µM in the test on PC14 (PC-14, 72 h).
`COc1cc(OC)c(-c2cn3ccc(N4CCC(NS(C)(=O)=O)C4)cc3n2)cc1Cl` (stereo not drawn) [Example 40, N-(1-(2-(5-chloro-2,4-dimethoxyphenyl)imidazo[1,2-a]pyridin-7-yl)pyrrolidin-3-yl)methanesulfonamide]: the IC50 in the test with A549 (setting [6]) was found to be 17 µM; at SUV39H2 (enzyme assay) it was 0.00381 µM; in the test with HFL1 (setting [7]) it was 14 µM; in the test on HCT-116 (setting [8]), 14 µM; with CCD-18Co (setting [9]), 15 µM; in the test on PC14 (setting [10]) it was 6.7 µM.
With `COc1cc(OC)c(-c2cn3ccc(N4CCN(CCN(C)C)CC4)cc3n2)cc1Cl` [Example 88, 2-(4-(2-(5-chloro-2,4-dimethoxyphenyl)imidazo[1,2-a]pyridin-7-yl)piperazin-1-yl)-N,N-dimethylethanamine], the IC50 in the test with A549 (setting [6]) was determined as 3.3 µM; at SUV39H2 (enzyme assay), 0.00884 µM; in the test on HFL1 (setting [7]), 3 µM; in the test on HCT-116 (setting [8]), 3.9 µM; in the test on CCD-18Co (setting [9]), 5.6 µM; in the test with PC14 (setting [10]), 2.9 µM.
Consider `COc1cc(OCCCN(C)C)c(-c2cn3ccc(N4CCN(S(=O)(=O)C5CC5)CC4)cc3n2)cc1Cl` [Example 160, 3-(4-Chloro-2-{7-[4-(cyclopropylsulfonyl)piperazin-1-yl]imidazo[1,2-a]pyridin-2-yl}-5-methoxyphenoxy)-N,N-dimethylpropan-1-amine], for which the IC50 was determined as 1.4 µM in the test with A549 (setting [6]); 0.0277 µM at SUV39H2 (enzyme assay); 1.5 µM in the test with HFL1 (setting [7]); 1.2 µM with HCT-116 (setting [8]); 2.9 µM in the test with CCD-18Co (setting [9]); 1.9 µM in the test on PC14 (setting [10]).
Turning to `CC[C@@H](C)[C@H](NC(=O)OC(C)(C)C)C(=O)Nc1ccn2cc(-c3cc(Cl)c(OC)cc3OC)nc2c1` [Example 257, tert-butyl ((2S,3R)-1-((2-(5-chloro-2,4-dimethoxyphenyl)imidazo[1,2-a]-pyridin-7-yl)amino)-3-methyl-1-oxopentan-2-yl)carbamate], the IC50 with A549 (setting [1]) was 5 µM; on SUV39H2 (enzyme assay), 0.0435 µM; with HFL1 (setting [2]), 5.2 µM; in the test on HCT-116 (setting [3]), 5.5 µM; with CCD-18Co (setting [4]), 5.1 µM; with PC14 (setting [5]) it was 3 µM.
For the molecule `COc1cc(OCSC)c(-c2cn3ccc(N4CCN(S(=O)(=O)C5CC5)CC4)cc3n2)cc1Cl` [Example 255, 2-(5-chloro-4-methoxy-2-((methylthio)methoxy)phenyl)-7-(4-(cyclopropylsulfonyl)piperazin-1-yl)imidazo[1,2-a]pyridine], the IC50 with A549 (setting [1]) stood at 2.5 µM; on SUV39H2 (enzyme assay) it was 0.00672 µM; in the test with HFL1 (setting [2]), 1.7 µM; in the test with HCT-116 (setting [3]) it was 2.3 µM; in the test on CCD-18Co (setting [4]), 1.9 µM; in the test on PC14 (setting [5]), 1.5 µM.
